# Experimental data: US20100190683A1, “SOLIDIFIED DETERGENT COMPOSITIONS AND METHOD FOR PRODUCING THE SAME” (priority 2007, published 2010)
# Columns and labels:
# [1] = Solubility to tap water and behavior after dissolution of lyophilized samples; type: physicochemical; conditions: lyophilization 15 hours
# Procedure: On the other hand, such a phenomenon was not seen when ethanol was added (Table 1). Therefore, in the conditions like the ethanol addition groups, the sample was prepared by using t-butyl alcohol in substitution for ethanol, and lyophilized for 15 hours. As a result, solidification (powderization) by lyophilization was possible in both samples. In addition, the solubility to tap water was good, and after dissolution, gelation or the like has not also happened (Table 2). Furthermore, ethanol or t-butyl alcohol was not added, and in the system which only HD was added, the solubility to tap water was good, and after dissolution, gelation or the like had not also happened (Table 2). In the system which as substitution for HD, a nonionic surfactant, polyoxyethylene sorbitan monolaurate (hereinafter referred to as PO) was added, this system was also examined, and then a similar good result was obtained.
# [2] = Solubility to tap water of the substance obtained by azeotrope at 70° C.; type: physicochemical; conditions: surfactant HD, tap water of 5 mL
# Procedure: In the undiluted solution of octadecyl dimethyl (3-trimethoxysilyl propyl) ammonium chloride (hereinafter referred to as QAS) which is an antimicrobial detergent, hexadecyl trimethyl ammonium (hereinafter referred to as HD), which was a cationic surfactant, was added, and for the azeotrope, a sample solution with the addition of acetone or ethanol was prepared, azeotrope was performed at 70° C. […] In the resultant gelated substance, tap water of 5 mL was added, but gelation advanced in many samples highly and solidification was occurred within several minutes to 1 hour, and those were not suitable for practical use (Table 1).
# [3] = surfactant HD, solvent t-Butyl alcohol
# [4] = surfactant HD, solvent: nothing
# [5] = surfactant PO, solvent: nothing
compound,measurement,setting,value
"CCCCCCCCCCCCCCCCCC[N+](C)(C)CCC[Si](OC)(OC)OC.[Cl-] [QAS, octadecyl dimethyl (3-trimethoxysilyl propyl) ammonium chloride]",Behavior after dissolution,"[1]; surfactant HD, solvent Ethanol",No problem
same,Solubility to tap water,"[1]; surfactant HD, solvent Ethanol",No problem
same,Behavior after dissolution,[1]; [3],No problem
same,Solubility to tap water,[1]; [3],No problem
same,Behavior after dissolution,[1]; [4],No problem
same,Solubility to tap water,[1]; [4],No problem
same,Behavior after dissolution,[1]; [5],No problem
same,Solubility to tap water,[1]; [5],No problem
same,Solubility to tap water,[2]; solvent addition Acetone,Gel→Consolidate
same,Solubility to tap water,[2]; solvent addition: nothing,Gel→Consolidate
